Values joined by “and” are separate entries in the source; they are usually repeats but may differ in a detail not shown here. Equal entries are not always repeated. Structures can show the parent of a compound that is named as a salt. Marks after values point to notes of the source that are not given here.
Columns and labels:
[1] = Acute toxicity, three daily IV bolus injections in mice (IPM lysine salt, IPM parent control); format: in vivo; conditions: for intravenous LD10 / intravenous LD50: IV daily × 3 days
Procedure: This example describes the evaluation of the acute toxicity of isophosphoramide mustard lysine salt, following three days of daily intravenous (bolus) injection in mice. This study consisted of two phases.
The second main study phase consisted of eight treatment groups (five mice/sex/group) that received the test article as a single daily dose for three consecutive days at respective dose levels of 50, 75, 100, 200, 300, 400, 500, and 600 mg/kg. An additional group (5 mice/sex) served as a parent compound control and received the isophosphoramide mustard parent compound in the same manner, at a dose level of 150 mg/kg. The vehicle was 0.9% sodium chloride for injection, USP and all doses were at a constant volume of 15 mL/kg.
Observations for mortality, morbidity, and the availability of food and water were conducted twice daily for all animals. Observations for clinical signs were conducted daily during the study (approximately one and four hours postdose on Days 1, 2, and 3, and once daily on non-dosing days). Body weights for all surviving animals were measured and recorded the second day after receipt, prior to randomization, and on Days-1 and 7. Body weights also were measured on all surviving main study phase animals on Day 14. Macroscopic evaluations were performed on each main study animal at necropsy (Day 15).
Eight main study treatment groups received the test article as a single daily dose for three consecutive days via intravenous (bolus) injection at respective dose levels of 50, 75, 100, 200, 300, 400, 500, and 600 mg/kg. An additional group (five mice/sex) served as a parent compound control and received the Isophosphoramide Mustard Parent Compound in the same manner at a dose level of 150 mg/kg. All doses were at a volume of 15 mL/kg and based on the most recent body weight.

[2] = system: MX-1 Human Breast Tumor; conditions: mouse, in vivo, ip
[3] = Estimated comparable human intravenous dosages
[4] = system: advanced cancer; assay: Treatment of patients with advanced cancer with IPM.(LYS)2; format: in vivo, human
Procedure: One patient (cohort) was treated per dose escalation every 21-28 days to allow for toxicity presentation. Doses were escalated by 40% if there were no serious toxic events.

[5] = system: Lewis lung murine tumor; conditions: mouse, in vivo, ip

O=P(O)(NCCCl)NCCCl [IPM lysine salt, isophosphoramide mustard lysine salt]
Cumulative Mortality, female ([1]; 50 mg/kg IV daily × 3): 0/5 | Cumulative Mortality, male ([1]; 50 mg/kg IV daily × 3): 0/5 | Cumulative Mortality, total ([1]; 50 mg/kg IV daily × 3): No mice died | Cumulative Mortality, total ([1]; 50 mg/kg IV daily × 3, listed as IPM Lysine Salt): No animals died and 0/10 | Cumulative Mortality, female ([1]; 75 mg/kg IV daily × 3): 0/5 | Cumulative Mortality, male ([1]; 75 mg/kg IV daily × 3): 0/5 | Cumulative Mortality, total ([1]; 75 mg/kg IV daily × 3): No mice died | Cumulative Mortality, total ([1]; 75 mg/kg IV daily × 3, listed as IPM Lysine Salt): No animals died and 0/10 | Cumulative Mortality, female ([1]; 100 mg/kg IV daily × 3): 0/5 | Cumulative Mortality, male ([1]; 100 mg/kg IV daily × 3): 1/5 | Cumulative Mortality, total ([1]; 100 mg/kg IV daily × 3): 1 of 10 | Cumulative Mortality, total ([1]; 100 mg/kg IV daily × 3, listed as IPM Lysine Salt): 1 of 10 and 1/10 | Cumulative Mortality, female ([1]; 200 mg/kg IV daily × 3): 3/5 | Cumulative Mortality, male ([1]; 200 mg/kg IV daily × 3): 0/5 | Cumulative Mortality, total ([1]; 200 mg/kg IV daily × 3): No mice died | Cumulative Mortality, total ([1]; 200 mg/kg IV daily × 3, listed as IPM Lysine Salt): 3 of 10 and 3/10 | Cumulative Mortality, female ([1]; 300 mg/kg IV daily × 3): 5/5 | Cumulative Mortality, male ([1]; 300 mg/kg IV daily × 3): 4/5 | Cumulative Mortality, total ([1]; 300 mg/kg IV daily × 3): 9 out of 10 | Cumulative Mortality, total ([1]; 300 mg/kg IV daily × 3, listed as IPM Lysine Salt): 9 of 10 and 9/10 | Cumulative Mortality, female ([1]; 400 mg/kg IV daily × 3): 5/5 | Cumulative Mortality, male ([1]; 400 mg/kg IV daily × 3): 5/5 | Cumulative Mortality, total ([1]; 400 mg/kg IV daily × 3): all mice died | Cumulative Mortality, total ([1]; 400 mg/kg IV daily × 3, listed as IPM Lysine Salt): all animals died and 10/10 | Cumulative Mortality, female ([1]; 500 mg/kg IV daily × 3): 5/5 | Cumulative Mortality, male ([1]; 500 mg/kg IV daily × 3): 5/5 | Cumulative Mortality, total ([1]; 500 mg/kg IV daily × 3): all mice died | Cumulative Mortality, total ([1]; 500 mg/kg IV daily × 3, listed as IPM Lysine Salt): all animals died and 10/10 | Cumulative Mortality, female ([1]; 600 mg/kg IV daily × 3): 5/5 | Cumulative Mortality, male ([1]; 600 mg/kg IV daily × 3): 5/5 | Cumulative Mortality, total ([1]; 600 mg/kg IV daily × 3): all mice died | Cumulative Mortality, total ([1]; 600 mg/kg IV daily × 3, listed as IPM Lysine Salt): all animals died and 10/10 | Sub-acute IV LD10 ([1]; Mouse): 133 mg/kg/day | intravenous LD10 ([1]; female mice): 179 mg/kg | intravenous LD50 ([1]; female mice): 197 mg/kg | macroscopic findings at necropsy ([1]; main study, Day 15): No treatment-related macroscopic findings | intravenous LD10 ([1]; male mice): 140 mg/kg | intravenous LD50 ([1]; male mice): 247 mg/kg | intravenous LD10 ([1]; mice, combined sexes): 133 mg/kg | intravenous LD50 ([1]; mice, combined sexes): 220 mg/kg | LD10, intravenous three day dose schedule ([1]; mouse, × 3 days): 133 mg/kg/day | MTD Dosage [2]: 93.2 mg/kg/dose | T-C [2]: 10.2* days | superiority to IPM at comparable dosing [2]: 8 fold | estimated MTD in humans (1/10 the LD10 in mice) [3]: 40 mg/m^2/d | Comparable Human IV Dosage ([3]; estimated from mouse sub-acute IV LD10): 40 mg/m^2/d | serious toxicity in patients ([4]; 30, 42, 59 and 83 mg/m^2 daily IV for 3 days, one patient each): without serious toxicity | disease response ([4]; one patient with rectal cancer, 83 mg/m^2 daily IV for 3 days): stabilization of their disease | MTD Dosage [5]: 93.2 mg/kg/dose | T-C [5]: 8.3* days | increase of the MTD (mg/kg/dose) of the salt over parent drug [5]: 2 fold
